# Source: patent publication US6696069B2, “Skin care cosmetic compositions containing phosphates and/or sulfates of branched alcohols and/or ethoxylates thereof” (Unilever Home & Personal Care USA, division of Conopco, Inc., priority 2000, dated 2004)
# Where “and” joins values, the source holds several entries; their conditions need not be identical. Identical values can stand only once. Counter-ions that a name gives are not always drawn. Marks after values point to notes of the source that are not given here.
# Columns and labels:
# [1] = tested on: human sebocytes; assay: Inhibition of sebocyte lipogenesis (14C-acetate incorporation); format: cell-based; settings: for lipogenesis inhibition (result in words): in combination with retinol, in comparison to either alone
# [2] = tested on: Neonatal human dermal fibroblasts; assay: Production of procollagen I by fibroblasts (slot blot, densitometry); format: cell-based; settings: for % Increase (+) or % decrease (−−) over control / Average OD (optical density) Reading / Fold increase Over Control: procollagen I; for % Increase (+) or % decrease (−−) over control: positive control, concentration not given; for collagen synthesis by fibroblasts (result in words): text summary of Tables 1 and 5
# Description: This example measured production of procollagen I by fibroblasts in response to treatment with various straight chain and branched alcohols alone.
# Procollagen I Staining Protocol for Slot Blot
# Neonatal human dermal fibroblasts were purchased from Clonetics Corp., San Diego, Calif. All materials for cell culture were purchased from Life Technologies, NY (and used in passages 5-10). Cells were seeded at a density of approximately 10,000/well in the inner 48 wells of a 96-well plate in a medium containing DMEM (Dulbecco's Modified Eagle's Medium), high-glucose supplemented with 2 mM L-glutamine, 10% fetal bovine serum, and antibiotic and antimycotic solutions. Cells were then grown to confluence for 2 days. At confluence, the medium was removed and cells were washed with serum-free DMEM, and each well dosed with 200 μl of a solution of a test compound in serum-free DMEM. Each dosing was replicated in a total of six wells. […] After 24 hours, the test compound solution or the control solution was removed and cells redosed with 100 μl of a solution of a test compound in serum-free DMEM.
# Nitrocellulose membrane and 3 sheets of filter paper were soaked in TRIS buffered saline (TBS, pH 7.3.). BioRad slot blot apparatus (BioRad Labs, CA) was set up with 3 sheets filter paper on bottom, membrane on top, and tightened. […] TBS was added per well. Vacuum was used to suck TBS through membrane. The test compound solution or control was vortexed, then 100 μl was loaded per well and gravity filtered. Procollagen from the test solution was bound to the membrane at this point in the procedure. Membrane was removed from the apparatus, excess cut off, and bottom right corner notched for orientation. The membrane was placed in blocking solution (5% milk powder in Dulbecco's phosphate buffered saline) overnight at 4° C., with shaking. The membrane was then incubated for 1.5 hrs at room temperature with 1.5 mL Rat Anti-Human Procollagen Amino-Terminal Ab (Chemicon MAB1912) in TBS with 0.1% BSA (Bovine Serum Albumin) (ratio of antibody to buffer/BSA was 1:100) in a sealed bag with shaking. The membrane was then removed; washed 3 times for 5 minutes in TBS/0.1% Tween. The membrane was then incubated for 1 hour at room temperature in 2 mL of Biotinylated Anti-Rat Peroxidase-Conjugated Ab (Vector Labs) in TBS with 0.1% BSA (ratio of antibody to buffer/BSA was 1:1000) in a sealed bag with shaking. The membrane was then stained using the following solution:
# 12.5 mg 3-amino 9-ethyl carbazole (Sigma)
# 3.125 (approximately) mL DMF (N,N-dimethylformamide, from Sigma)
# The membrane was stained until color developed and the reaction stopped with 2 washes for 10 minutes in tap water. The blot was scanned on a Bio-Rad GS700 Image Analysis densitometer. Percent change from control was calculated from densitometer readings as follows: [(Reading for test compound−Reading for control)/Reading for control]*100. Control has a reading of 100%. Statistical significance (p value) was calculated using student's t-test.
# TGF-B is a positive control, ensuring the integrity of the assay: transforming growth factor beta is known to increase procollagen I in fibroblasts.
# This example measured production of procollagen I by fibroblasts in response to treatment with various test compounds.
# The experiment was conducted as described in Example 1 above. Fold increase was calculated as a ratio of densitometer reading for cells treated with a test compound over control.
# [3] = lipogenesis, 1 μM + 1 μM Retinol
# [4] = lipogenesis, 1 μM + 10 μM Retinol
# [5] = lipogenesis, 10 μM + 1 μM Retinol
# [6] = lipogenesis, 10 μM + 10 μM Retinol
compound,measurement,setting,value
"O=S1(=O)OC(c2ccc(O)cc2)(c2ccc(O)cc2)c2ccccc21 [Phenol Red, reference compound]",activity at 28 µM,"[1]; Homo sapiens, lipogenesis, 28 μM, alone, read-out: % of Control",91.9%
same,activity at 280 µM,"[1]; Homo sapiens, lipogenesis, 280 μM, alone, read-out: % of Control",58.1%
same,% of Control,"[1]; lipogenesis, 28 μM, alone",92.0% and 79.3% and 84.0%
same,% of Control,"[1]; lipogenesis, 280 μM, alone",61.7* % and 70.6* %
"CC(C)CCCCCCCCCCOS(=O)(=O)O [Iso-tridecyl Sulfate, sodium salt]",activity at 33.1 µM,"[1]; Homo sapiens, lipogenesis, 33.1 μM, alone, read-out: % of Control",54.9%
same,activity at 165.5 µM,"[1]; Homo sapiens, lipogenesis, 165.5 μM, alone, read-out: % of Control",14%
same,activity at 331 µM,"[1]; Homo sapiens, lipogenesis, 331 μM, alone, read-out: % of Control",5.5%
TGF-B [reference compound],% Increase (+) or % decrease (−−) over control,[2]; Experiment 1,+50* %
same,% Increase (+) or % decrease (−−) over control,[2]; Experiment 2,+140* %
same,Average OD (optical density) Reading,"[2]; Plate 1, 0.001%",1.348
same,Fold increase Over Control,"[2]; Plate 1, 0.001%",1.72
same,Average OD (optical density) Reading,"[2]; Plate 2, 0.001%",1.653
same,Fold increase Over Control,"[2]; Plate 2, 0.001%",1.65
"CC1=C(/C=C/C(C)=C/C=C/C(C)=C/CO)C(C)(C)CCC1 [Retinol, reference compound]",activity at 1 µM,"[1]; Homo sapiens, lipogenesis, 1 μM, alone, read-out: % of Control",91.8%
same,activity at 10 µM,"[1]; Homo sapiens, lipogenesis, 10 μM, alone, read-out: % of Control",106%
same,% of Control,"[1]; lipogenesis, 1 μM, alone",97.4% and 93.2% and 91.5%
same,% of Control,"[1]; lipogenesis, 10 μM, alone",106.0% and 101.8%
Iso-tridecyl Phosphate (Disodium salt),% of Control,"[1]; lipogenesis, 1 μM, alone",90.7%
same,% of Control,"[1]; lipogenesis, 10 μM, alone",88.4%
same,% of Control,"[1]; lipogenesis, 100 μM, alone",88.3%
Iso-tridecyl Phosphate,Average OD (optical density) Reading,"[2]; Plate 2, 0.0001%",2.170
same,Fold increase Over Control,"[2]; Plate 2, 0.0001%",2.17
same,Average OD (optical density) Reading,"[2]; Plate 2, 0.001%",1.460
same,Fold increase Over Control,"[2]; Plate 2, 0.001%",1.460
same,collagen synthesis by fibroblasts (result in words),[2],increased collagen production
same,lipogenesis inhibition (result in words),[1],enhanced inhibition of lipogenisis production
same,% of Control,[1]; [3],78.1* %
same,% of Control,[1]; [4],71.6* %
same,% of Control,[1]; [5],70.6* %
same,% of Control,[1]; [6],66.9* %
same,% of Control,"[1]; lipogenesis, 100 μM + 1 μM Retinol",74.1* %
same,% of Control,"[1]; lipogenesis, 100 μM + 10 μM Retinol",78.2%
Iso-tridecyl Sulfate,Average OD (optical density) Reading,"[2]; Plate 1, 0.0001%",1.000
same,Fold increase Over Control,"[2]; Plate 1, 0.0001%",1.28
same,Average OD (optical density) Reading,"[2]; Plate 1, 0.001%",1.223
same,Fold increase Over Control,"[2]; Plate 1, 0.001%",1.56
same,collagen synthesis by fibroblasts (result in words),[2],increased collagen production
same,lipogenesis (result in words),"[1]; alone or as a salt, Table 2",reduced lipogenesis production
same,lipogenesis inhibition (result in words),[1],improved lipogenesis inhibition
same,% of Control,[1]; [3],70.6* %
same,% of Control,[1]; [4],64.4* %
same,% of Control,"[1]; lipogenesis, 1 μM, alone",72.5* %
same,% of Control,[1]; [5],56.1* %
same,% of Control,[1]; [6],47.5* %
same,% of Control,"[1]; lipogenesis, 10 μM, alone",58.2* %
same,% of Control,"[1]; lipogenesis, 35.6 μM, alone",63.5%
same,% of Control,"[1]; lipogenesis, 178 μM, alone",18.1* %
same,% of Control,"[1]; lipogenesis, 356 μM, alone",7.4* %
